{"source": "patent US9957236B2", "about": "“Selective inhibitors interfering with fibroblast growth factor receptor and FRS2 interaction for the prevention and treatment of cancer and other diseases” (LIMITED LIABILITY COMPANY “RUSSIAN PHARMACEUTICAL …, priority 2014, dated 2018)", "tested_on": "FGFR2", "experiment": "FGFR phosphorylation in KATO III cells (Western blotting, Wes)", "type": "cell-based", "procedure": "For assessment of the effect of RPT835 inhibitor characterized in this invention with formula II, stomach cancer cells KATO III, which express FGFR2, were used for FRS2 phosphorylation. FGF-2 in concentration of 1 mg/ml and heparin 10 mg/ml were added to the cells for stimulation of FGFR. RPT835 was added in various concentrations. A part of the cells was left without adding the inhibitor, and a part of the cells—without adding either inhibitor, or stimulating agents (control group).\nTwo standard methods for assessment of the phosphorylation level of FGFR and FRS2: • Western blotting using manual work; • Automatic capillary electrophoresis and immunodetection using automatic system Wes™ (ProteinSimple; SantaClara, Calif.).\nLike in Example 1, stomach cancer cells KATO III strongly expressing FGFR2 were used. A part of cells stimulated FGF-2 in concentration 1 mg/ml and heparin 10 mg/ml. The other part of the cells was left without stimulation. Inhibitor RPT835 in dose 1, 10, 100, 1000 nM was added to cells. The control group left without addition of RPT835.\nThe level of FGFR phosphorylation was assessed using standard Western-blotting and automatic capillary electrophoresis with immune-detection and use of automatic system Wes™ (ProteinSimple; SantaClara, Calif.).", "data": [{"compound": "Cc1cc([N+](=O)[O-])c(NS(=O)(=O)c2cccc(C(=O)O)c2)cc1-c1cccnc1", "note": "[RPT835, 3-(N-(4-methyl-2-nitro-5-(pyridin-3-yl)phenyl)sulfamoyl)benzoic acid]", "values": [{"measurement": "phosphorylation of FGFR2 stimulated by FGF-2 (tyrosine kinase activity)", "setting": "KATO III cells, 1, 10, 100, 1000 nM", "value": "did not have any effect"}, {"measurement": "phosphorylation of general FGFR", "setting": "KATO III cells, with and without FGF-2 stimulation", "value": "without influence on phosphorylation of general FGFR"}]}]}
